Reference: patent US11226337B2, “Chemoproteomic profiling of protein electrophilic and oxidative post-translational modifications” (Zenagem, LLC, priority 2017, dated 2022)

Columns and labels:
Test in all cases: SILAC RP-ABPP
Assay type in all cases: cell-based
[1] = target: T1, CTSB Cathepsin B (P07858) (Homo sapiens, UniProt P07858); settings: SILAC H/L, MDA-MB-231
T1 construct: In Situ Labelling of Cells with Hydrazine Probes for MS Experiments; endogenous in cells; host or cells: HEK293T and MDA-MB-231

[2] = target: T2, GAA Lysosomal alphaglucosidase (P10253) (Homo sapiens, UniProt P10253); settings: SILAC H/L, MDA-MB-231
T2 construct: In Situ Labelling of Cells with Hydrazine Probes for MS Experiments; endogenous in cells

[3] = target: T3, RARS2 Probable arginine tRNA ligase (Q5T160) (Homo sapiens, UniProt Q5T160); settings: SILAC H/L
T3 construct: shared by both the endogenous and recombinant forms of these proteins; endogenous in cells; host or cells: HEK293T and MDA-MB-231
T3 sequence (Q5T160 17-578): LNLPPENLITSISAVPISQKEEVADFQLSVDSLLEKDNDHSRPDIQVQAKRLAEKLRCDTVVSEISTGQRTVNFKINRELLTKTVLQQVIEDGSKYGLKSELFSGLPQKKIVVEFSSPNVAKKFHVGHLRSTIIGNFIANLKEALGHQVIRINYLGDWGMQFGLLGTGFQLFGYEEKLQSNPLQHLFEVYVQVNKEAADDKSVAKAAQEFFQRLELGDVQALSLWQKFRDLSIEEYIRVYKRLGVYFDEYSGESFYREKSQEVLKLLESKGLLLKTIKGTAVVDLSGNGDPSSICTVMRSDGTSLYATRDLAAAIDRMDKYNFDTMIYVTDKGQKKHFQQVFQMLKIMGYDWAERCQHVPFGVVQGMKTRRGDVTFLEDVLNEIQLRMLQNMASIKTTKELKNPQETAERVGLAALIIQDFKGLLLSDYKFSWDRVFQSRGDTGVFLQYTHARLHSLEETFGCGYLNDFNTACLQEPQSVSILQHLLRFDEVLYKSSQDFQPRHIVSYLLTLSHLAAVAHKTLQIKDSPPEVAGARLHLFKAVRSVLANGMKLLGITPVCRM

[4] = target: T4, TPP1 Tripeptidylpeptidase 1 (O14773) (Homo sapiens, UniProt O14773); settings: SILAC H/L, MDA-MB-231
T4 construct: In Situ Labelling of Cells with Hydrazine Probes for MS Experiments; endogenous in cells; host or cells: HEK293T and MDA-MB-231
T4 sequence (O14773 196-563): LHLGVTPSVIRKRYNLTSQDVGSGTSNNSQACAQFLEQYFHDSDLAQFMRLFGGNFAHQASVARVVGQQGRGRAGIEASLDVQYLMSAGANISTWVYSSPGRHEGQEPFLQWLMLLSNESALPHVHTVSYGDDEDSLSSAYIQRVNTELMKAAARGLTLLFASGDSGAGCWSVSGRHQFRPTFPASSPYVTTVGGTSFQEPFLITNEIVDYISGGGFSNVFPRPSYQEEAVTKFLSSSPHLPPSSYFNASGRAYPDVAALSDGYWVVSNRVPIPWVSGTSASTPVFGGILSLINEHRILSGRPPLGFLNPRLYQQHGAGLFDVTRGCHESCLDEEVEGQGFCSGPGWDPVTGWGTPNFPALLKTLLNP

enrichment ratioavg ([1]; probe 2 1 mM 0.5 h vs probe 4)	competition ratioavg ([1]; probe 2 vs probe 2+10x probe 4)	enrichment ratioavg ([2]; probe 2 1 mM 0.5 h vs probe 4)	competition ratioavg ([2]; probe 2 vs probe 2+10x probe 4)	competition ratioavg ([3]; probe 2 vs probe 2+10x probe 4, cell line not given)	enrichment ratioavg ([4]; probe 2 1 mM 0.5 h vs probe 4)	competition ratioavg ([4]; probe 2 vs probe 2+10x probe 4)	Compound	enrichment ratioavg ([1]; probe 1 3 mM 0.5 h vs probe 3)	competition ratioavg ([1]; probe 1 vs probe 1+10x probe 3)	enrichment ratioavg ([2]; probe 1 3 mM 0.5 h vs probe 3)	competition ratioavg ([2]; probe 1 vs probe 1+10x probe 3)	enrichment ratioavg ([3]; probe 1 3 mM 0.5 h vs probe 3, HEK293T)	competition ratioavg ([3]; probe 1 vs probe 1+10x probe 3, HEK293T)	enrichment ratioavg ([4]; probe 1 3 mM 0.5 h vs probe 3)	competition ratioavg ([4]; probe 1 vs probe 1+10x probe 3)
14	5	20	4	3	18	4	C#CCCNC(=O)c1ccc(NN)cc1.Cl [probe 2, N-(but-3-yn-1-yl)-4-hydrazinylbenzamide hydrochloride]	–	–	–	–	–	–	–	–
–	–	–	–	–	–	–	C#CCNN.Cl [probe 1, prop-2-yn-1-ylhydrazine hydrochloride]	9	3	9	2	16	4	15	3
